The target in one data set is human 5-HT6 receptor (Homo sapiens (Human), UniProt P50406). Nature of the data set: 5-HT6 radioligand binding assay (SPA format, [N-methyl-3H]-LSD). The method, boiled down:
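Human 5-HT6 receptor membranes were incubated overnight at room temperature with 10 nM [N-methyl-3H]-LSD and competitor in 50 mM Tris-HCl pH 7.5, 5 mM MgCl2, 1 mM EDTA, 4% DMSO, read by SPA. Nonspecific binding was defined with 100 μM 5-HT. IC50 came from ten-point duplicate curves; Ki via Cheng-Prusoff.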

The mark [1] stands for this setting: human 5-HT6 receptor membranes, 10 nM [N-methyl-3H]-LSD, Ki by Cheng-Prusoff, read-out: human 5HT6 Ki.

Like-named read-outs stand apart in the source and are kept apart here.

Chain of human 5-HT6 receptor (P50406 whole entry): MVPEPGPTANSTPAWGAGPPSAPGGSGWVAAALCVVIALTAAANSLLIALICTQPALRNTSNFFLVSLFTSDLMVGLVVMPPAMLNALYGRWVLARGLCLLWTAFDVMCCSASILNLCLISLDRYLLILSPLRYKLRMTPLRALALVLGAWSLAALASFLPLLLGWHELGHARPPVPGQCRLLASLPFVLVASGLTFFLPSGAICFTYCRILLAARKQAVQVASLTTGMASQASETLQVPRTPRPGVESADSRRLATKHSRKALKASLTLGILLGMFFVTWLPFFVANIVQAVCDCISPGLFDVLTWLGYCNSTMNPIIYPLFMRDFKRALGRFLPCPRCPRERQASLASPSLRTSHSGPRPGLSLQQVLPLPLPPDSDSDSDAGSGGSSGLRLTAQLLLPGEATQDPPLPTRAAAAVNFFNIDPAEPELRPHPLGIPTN

As usually defined, the Ki is the dissociation constant of the complex between target and ligand, obtained from inhibition or displacement. As usually defined, the melting point is the temperature of the solid-liquid transition. As for `Cl.O=S(=O)(c1cccc(F)c1)c1ccc2oc3c(c2c1)CNCC3` [Example 29, 8-(3-Fluorophenylsulfonyl)-1,2,3,4-tetrahydrobenzofuro[3,2-c]pyridine hydrochloride], the melting point is 262 to 272 °C (dec.). Besides, the Ki on human 5-HT6 receptor (setting [1]) was 16 nM.

As for `Cl.O=S(=O)(c1cccc(Cl)c1)c1ccc2oc3c(c2c1)CNCC3` [Example 30, 8-(3-Chlorophenylsulfonyl)-1,2,3,4-tetrahydrobenzofuro[3,2-c]pyridine hydrochloride], the melting point is 245 to 252 °C (dec.). In addition, the Ki on human 5-HT6 receptor (setting [1]) was 6.2 nM.

Take `Cl.O=S(=O)(c1ccc(F)cc1)c1ccc2oc3c(c2c1)CNCC3` [Example 31, 8-(4-Fluorophenylsulfonyl)-1,2,3,4-tetrahydrobenzofuro[3,2-c]pyridine hydrochloride]: the melting point lay in the range of 270 to 280 °C. In addition, the Ki at human 5-HT6 receptor (setting [1]) stood at 43 nM.

Regarding `Cl.O=S(=O)(c1ccc(Cl)cc1)c1ccc2oc3c(c2c1)CNCC3` [Example 32, 8-(4-Chlorophenylsulfonyl)-1,2,3,4-tetrahydrobenzofuro[3,2-c]pyridine hydrochloride], the melting point lay within 302 to 305 °C. Moreover, on human 5-HT6 receptor (setting [1]), the Ki came out at 38 nM.

On to `COc1ccc(S(=O)(=O)c2ccc3oc4c(c3c2)CNCC4)cc1.Cl` [Example 33, 8-(4-Methoxyphenylsulfonyl)-1,2,3,4-tetrahydrobenzofuro[3,2-c]pyridine hydrochloride], for which the melting point was in the range of 270 to 272 °C. Further, the inhibitory constant (Ki) at human 5-HT6 receptor (setting [1]) worked out at 100 nM.

Consider `Cl.N#Cc1ccc(S(=O)(=O)c2ccc3oc4c(c3c2)CNCC4)cc1` [Example 34, 8-(4-Cyanophenylsulfonyl)-1,2,3,4-tetrahydrobenzofuro[3,2-c]pyridine hydrochloride], for which the melting point is 295 to 301 °C (dec.). This molecule also showed a Ki on human 5-HT6 receptor of 1320 nM.

For the molecule `Cc1ccc(S(=O)(=O)c2ccc3oc4c(c3c2)CNCC4)cc1.Cl` [Example 35, 8-(4-Methylphenylsulfonyl)-1,2,3,4-tetrahydrobenzofuro[3,2-c]pyridine hydrochloride], the melting point fell in the range of 265 to 270 °C. Moreover, the Ki at human 5-HT6 receptor (setting [1]) turned out to be 38 nM.

For `Cl.Nc1ccc(S(=O)(=O)c2ccc3oc4c(c3c2)CNCC4)cc1` [Example 36, 8-(4-Aminophenylsulfonyl)-1,2,3,4-tetrahydrobenzofuro[3,2-c]pyridine hydrochloride], the melting point was 305 to 314 °C (dec.). Further, the Ki at human 5-HT6 receptor (setting [1]) was 40 nM.

Turning to `Cl.O=S(=O)(c1cc(F)cc(F)c1)c1ccc2oc3c(c2c1)CNCC3` [Example 37, 8-(3,5-Difluorophenylsulfonyl)-1,2,3,4-tetrahydrobenzofuro[3,2-c]pyridine hydrochloride], the melting point is 275 to 281 °C (dec.). Further, the Ki at human 5-HT6 receptor (setting [1]) was determined as 339 nM.

Consider `Cl.O=S(=O)(c1cc(Cl)cc(Cl)c1)c1ccc2oc3c(c2c1)CNCC3` [Example 38, 8-(3,5-Dichlorophenylsulfonyl)-1,2,3,4-tetrahydrobenzofuro[3,2-c]pyridine hydrochloride], for which the melting point was in the range of 312 to 315 °C. Further, the Ki at human 5-HT6 receptor (setting [1]) amounted to 17 nM.

For `Cl.O=S(=O)(c1ccc2oc3c(c2c1)CNCC3)c1cccc2ccccc12` [Example 39, 8-(1-Naphthylsulfonyl)-1,2,3,4-tetrahydrobenzofuro[3,2-c]pyridine hydrochloride], the melting point is 200 to 202 °C. In addition, the Ki at human 5-HT6 receptor (setting [1]) turned out to be 5 nM.

In the case of `Cl.O=S(=O)(c1ccc2ccccc2c1)c1ccc2oc3c(c2c1)CNCC3` [Example 40, 8-(2-Naphthylsulfonyl)-1,2,3,4-tetrahydrobenzofuro[3,2-c]pyridine hydrochloride], the melting point lay within 267 to 270 °C. Further, the Ki on human 5-HT6 receptor (setting [1]) was found to be 21 nM.

As for `Cl.O=S(=O)(c1ccc2oc3c(c2c1)CNCC3)n1ccc2ccccc21` [Example 41, 8-(1H-Indol-1-ylsulfonyl)-1,2,3,4-tetrahydrobenzofuro[3,2-c]pyridine hydrochloride], the melting point is 283 to 286 °C. The Ki on human 5-HT6 receptor (setting [1]) worked out at 0.58 nM.

Regarding `Cl.O=S(=O)(c1ccc2oc3c(c2c1)CNCC3)n1ccc2ccc(F)cc21` [Example 42, 8-(6-fluoro-1H-indol-1-ylsulfonyl)-1,2,3,4-tetrahydrobenzofuro[3,2-c]pyridine hydrochloride], the melting point is 199 to 203 °C. At human 5-HT6 receptor (setting [1]), the Ki is 1.5 nM.

`Cc1cn(S(=O)(=O)c2ccc3oc4c(c3c2)CNCC4)c2ccccc12.Cl` [Example 43, 8-(3-Methyl-1H-indol-1-ylsulfonyl)-1,2,3,4-tetrahydrobenzofuro[3,2-c]pyridine hydrochloride] registered a melting point of 293 to 296 °C. The inhibition constant Ki at human 5-HT6 receptor (setting [1]) is 0.42 nM.

For the molecule `Cl.O=S(=O)(c1ccccc1)c1cc(Cl)c2oc3c(c2c1)CNCC3` [Example 44, 6-Chloro-8-(phenylsulfonyl)-1,2,3,4-tetrahydrobenzofuro[3,2-c]pyridine hydrochloride], the melting point was in the range of 290 to 294 °C. Moreover, the Ki on human 5-HT6 receptor (setting [1]) was found to be 0.55 nM.

`Cl.O=S(=O)(c1cccc(F)c1)c1cc(Cl)c2oc3c(c2c1)CNCC3` [Example 47, 6-Chloro-8-(3-fluorophenylsulfonyl)-1,2,3,4-tetrahydrobenzofuro[3,2-c]pyridine hydrochloride] displayed a melting point of 276 to 278 °C. Moreover, the Ki at human 5-HT6 receptor (setting [1]) turned out to be 0.39 nM.

As for `Cl.N#Cc1cccc(S(=O)(=O)c2cc(Cl)c3oc4c(c3c2)CNCC4)c1` [Example 48, 6-Chloro-8-(3-cyanophenylsulfonyl)-1,2,3,4-tetrahydrobenzofuro[3,2-c]pyridine hydrochloride], the melting point was 272 to 274 °C. Further, the Ki on human 5-HT6 receptor (setting [1]) turned out to be 12 nM.

For the molecule `Cl.O=S(=O)(c1ccc(Cl)cc1)c1cc(Cl)c2oc3c(c2c1)CNCC3` [Example 49, 6-Chloro-8-(4-chlorophenylsulfonyl)-1,2,3,4-tetrahydrobenzofuro[3,2-c]pyridine hydrochloride], the melting point lay within 282 to 284 °C. Further, at human 5-HT6 receptor (setting [1]), the Ki stood at 1.9 nM.

`Cl.Cn1cc(S(=O)(=O)c2cc(Cl)c3oc4c(c3c2)CNCC4)c2ccccc21` [Example 50, 6-Chloro-8-(1-methyl-1H-indol-3-ylsulfonyl)-1,2,3,4-tetrahydrobenzofuro[3,2-c]pyridine] registered a melting point of 262 to 264 °C. In addition, on human 5-HT6 receptor (setting [1]), the Ki is 0.17 nM.

The molecule `Cl.O=S(=O)(c1ccccc1)c1cc(F)c2oc3c(c2c1)CNCC3` [Example 52, 6-Fluoro-8-(phenylsulfonyl)-1,2,3,4-tetrahydrobenzofuro[3,2-c]pyridine hydrochloride] yielded a melting point of 232 to 250 °C. Moreover, the Ki at human 5-HT6 receptor (setting [1]) is 5.1 nM.

`COc1cc(S(=O)(=O)c2ccccc2)cc2c3c(oc12)CCNC3.Cl` [Example 54, 6-Methoxy-8-(phenylsulfonyl)-1,2,3,4-tetrahydrobenzofuro[3,2-c]pyridine hydrochloride]: the melting point is 197 to 202 °C. Further, on human 5-HT6 receptor (setting [1]), the inhibition constant Ki is 0.12 nM.

`Cl.O=S(=O)(c1cccc(C(F)(F)F)c1)c1ccc2oc3c(c2c1)C1CCC(C3)N1` (centres unmarked) [Example 55, 2-(3-Trifluoromethylphenyl)sulfonyl-6,7,8,9,10-pentahydro-7,10-epiminocyclohepta[b]benzofuran hydrochloride]: the melting point lay within 296 to 298 °C. Besides, the Ki at human 5-HT6 receptor (setting [1]) is 53 nM.

Regarding `Cl.O=S(=O)(c1cccc(Cl)c1)c1ccc2oc3c(c2c1)C1CCC(C3)N1` (centres unmarked) [Example 56, 2-(3-Chlorophenyl)sulfonyl-6,7,8,9,10-pentahydro-7,10-epiminocyclohepta[b]benzofuran hydrochloride], the melting point was 285 to 288 °C. Moreover, at human 5-HT6 receptor (setting [1]), the Ki amounted to 31 nM.

The molecule `Cl.O=S(=O)(c1cccc(F)c1)c1ccc2oc3c(c2c1)C1CCC(C3)N1` (centres unmarked) [Example 57, 2-(3-Fluorophenyl)sulfonyl-6,7,8,9,10-pentahydro-7,10-epiminocyclohepta[b]benzofuran hydrochloride] displayed a melting point of 200 to 210 °C. Also, the inhibition constant Ki at human 5-HT6 receptor (setting [1]) is 133 nM.

With `Cc1cn(S(=O)(=O)c2ccc3oc4c(c3c2)C2CCC(C4)N2)c2ccccc12.Cl` (centres unmarked) [Example 58, 2-(3-Methyl-1H-indol-1-yl)sulfonyl-6,7,8,9,10-pentahydro-7,10-epiminocyclohepta[b]benzofuran hydrochloride], the melting point lay within 195 to 199 °C. Further, at human 5-HT6 receptor (setting [1]), the inhibitory constant (Ki) amounted to 16 nM.

The molecule `Cl.O=S(=O)(c1ccc2oc3c(c2c1)C1CCC(C3)N1)n1ccc2ccc(F)cc21` (centres unmarked) [Example 59, 2-(6-Fluoro-1H-indol-1-yl)sulfonyl-6,7,8,9,10-pentahydro-7,10-epiminocyclohepta[b]benzofuran hydrochloride] registered a melting point of 184 to 187 °C. For the same molecule, the Ki at human 5-HT6 receptor (setting [1]) stood at 17 nM.

The molecule `Cl.O=S(=O)(c1ccccc1)c1ccc2c3c(oc2c1)CCNC3` [Example 60, 7-(Phenylsulfonyl)-1,2,3,4-tetrahydrobenzofuro[3,2-c]pyridine hydrochloride] returned a melting point of 235 to 238 °C. Also, the Ki at human 5-HT6 receptor (setting [1]) was found to be 9.8 nM.

`CN1CCc2oc3cc(S(=O)(=O)c4ccccc4)ccc3c2C1.Cl` [Example 61, 2-Methyl-7-(phenylsulfonyl)-1,2,3,4-tetrahydrobenzofuro[3,2-c]pyridine hydrochloride] yielded a melting point of 242 to 245 °C. Also, the inhibition constant (Ki) at human 5-HT6 receptor (setting [1]) was 18 nM.

`Cl.O=S(=O)(c1cccc(Cl)c1)c1ccc2c3c(oc2c1)CCNC3` [Example 62, 7-(3-Chlorophenylsulfonyl)-1,2,3,4-tetrahydrobenzofuro[3,2-c]pyridine hydrochloride] yielded a melting point of 288 to 292 °C. Further, the Ki at human 5-HT6 receptor (setting [1]) worked out at 1.7 nM.

In turn, `Cl.O=S(=O)(c1cccc(C(F)(F)F)c1)c1ccc2c3c(oc2c1)CCNC3` [Example 63, 7-(3-Trifluoromethylphenylsulfonyl)-1,2,3,4-tetrahydrobenzofuro[3,2-c]pyridine hydrochloride] returned a melting point of 290 to 294 °C. Further, on human 5-HT6 receptor (setting [1]), the inhibitory constant (Ki) was 2.1 nM.

The values are drawn from US9067949B2, “Benzofuro[3,2-c] pyridines and related analogs as serotonin sub-type 6 (5-HT6) modulators for the treatment of obesity, metabolic syndrome, cognition and schizophrenia” (Albany Molecular Research, Inc., priority 2011, dated 2015).
